Columns and labels:
[1] = Ex vivo biodistribution in H460 tumor-bearing mice; conditions: 2 h post injection
Description: FIG. 20 illustrates biodistribution of [^18F]-C-SNAT4 in H460 tumor-bearing female nude mice. Mice were administered approximately 200 μCi [^18F]-C-SNAT4, animal were exsanguinated through the left ventricle and indicated tissues were excised at 2 hours post-injection in mice bearing naïve-tumor (black) or drug-treated tumor (gray). Data represent the mean±S.D. (n=4 animals per groups)
Biodistribution study: H460 or H1299 tumor-bearing female nude mice were administered approximately 7.4 MBq of [^18F]-C-SNAT4 via the tail vein (n=4-5 per group). Mice were maintained under anesthesia and warmed to 37° C. to replicate imaging conditions. At 90 min after [^18F]-C-SNAT4 injection, animals were sacrificed by exsanguination via cardiac puncture. For all animals, tumors were excised immediately upon death, weighed using pre-weighted tubes, and rapidly placed in 10% formalin (Fisher Scientific) for fixation. Tumor and tissue decay-corrected radioactivity was subsequently determined using a Cobra II Auto-Gamma counter (Packard Biosciences Co, UK.) Predefined 1.85 MBq (50 μCi) standards (50 μl) were also counter for data normalization to injected dose. Data were expressed as percent injected dose per gram of tissue (% ID/g).

H460 tumor = test: PET/CT imaging of H460 tumor-bearing mice; format: in vivo
Description: FIGS. 4A and 4D illustrate representative 55- to 60-min axial and sagittal fused PET/CT images. Nude mice received approximately 200 μCi of [18F]-C-SNAT4 via tail vein injection, with PET/CT images acquired at 55 to 60 min after injection. Arrowheads indicate the tumor, identified from the CT images. H460 and H1299 tumor bearing mice were naïve, or 24 h following last dose of cisplatin treatment (Low dose: 3 mg/kg every other day for three times; high dose: 9 mg/kg every other day for three times).
Animal model and probe administration: For subcutaneous tumor models, H460 or H1299 (2×10^6 cells in 100 μl of PBS) were injection subcutaneously on the back of female nu/nu nude mice (aged 6 to 8 weeks; Charles River Laboratories). Tumor dimensions were measured periodically using a caliper (by the same researcher), with tumor volumes calculated by the following equation: volume=a×b×c/2, where a, b, and c represent three orthogonal axis of the tumor. Treatment-response analysis was performed 24 h after drug treatment. For all other experiments, animals were culled 26 h after therapy and tissues excised for analysis. For chemotherapy mouse model, tumors were grown to about 150 mm^3, and then treatment that consisted of cisplatin (Sigma-Aldrich; Low dose: 3 mg/kg; high dose: 9 mg/kg) or saline was initiated through intravenous administration, every other day for three times. Total mouse body weight and tumor size were measured every other day. Treat or left untreated. For radiotherapy mouse model, treatment consisted of two fractions of 5 Gy or 2 Gy dose of radiation therapy delivered with a single 225 kV beam using the Kimtron IC 225 irradiator (Kimtron Medical, CT, USA).
Small-animal PET/CT imaging and analysis: PET/CT imaging was carried out on a docked Siemens Inveon PET/CT scanner (matrix size, 128×128×159; CT attenuation-corrected; non-scatter corrected) (Siemens Medical Solutions USA) following a bolus intravenous injection of approximately 200 μCi of [^18F]-C-SNAT4 into tumor-bearing mice (n=56, 3-4 mice per group). Dynamic scans were acquired in list mode format over 90 min, and sorted into 22 times of frames, 0.5-mm sinogram bins for image reconstruction (4×15 s, 4×60 s, 11×300 s, 3×600 s). Mice were anesthetized with 2% isoflurane near the center of the FOV to ensure the highest image resolution and sensitivity. Iterative reconstruction was performed using 3D ordered-subsets expectation maximization (3D-OSEM) followed by fast maximum a posteriori (fast MAP) with the following parameters: MAP OSEM iterations, 2; MAP subsets, 16; MAP iterations, 18. Siemens Inveon Research Workplace software v.4.0 was used for visualization of radiotracer uptake in the tumor, to define the three-dimensional (3D) volumes of interest (VOI) and for 3D-visualisation to create volume rendering technique (VRT) images. The relative tumor or organ radioactivity concentrations were from mean pixel values within the multiple ROI volumes. The radioactivity concentration within organs was obtained from mean pixel values with in the VOI and converted to counts per milliliter per min and then divided by the injected dose (ID) to obtain an imaging VOI-derived percentage of the injected radioactive dose per cubic centimeter of tissue (% ID/cc).

[2] = Stability of [18F]-C-SNAT4 in human serum (HPLC); format: in vitro ADME; conditions: 37° C., over 2 h incubation
Description: FIG. 10 illustrates serum stability of [^18F]-C-SNAT4 in human serum. [^18F]-C-SNAT4 was incubated in serum at 37° C. and analyzed by HPLC.
At 24 h post treatment, mixture tracer of [^19F]-C-SNAT4 was injected with [^18F]-C-SNAT4 (mixture ratio at 1:200) through the tail vein for PET imaging (FIG. 24A-24C). For treated animal, tumor uptake of mixture tracer [^18F]/[^19F]-C-SNAT4 and [^18F]-C-SNAT4 were 2.9±0.3% ID/cc and 1.7±0.1% ID/cc, respectively at 85 min post injection. There was 1.7-fold increase of radioactivity in the mixture-treated mice. Overall, the uptake of [^18F]-C-SNAT4 was increased both in radiation and drug-treated tumors. In contrast, the tumor uptake of [^18F]/[^19F]-C-SNAT4 (ratio at 1:200) and [^18F]/[^19F]-C-SNAT4 (ratio at 1:80) in untreated tumor was 0.5±0.2% ID/cc and 0.3±0.2% ID/cc, respectively at 85 min after injection (FIG. 25A-25C), followed by a rapid signal decay back to baseline within a few minutes. There were no changes compared to the uptake of [^18F]-C-SNAT4 (0.4±0.1% ID/cc). […] The sample was centrifuged at 13,400 g for 10 min and […] of the resultant supernatant was diluted with […] of water and analyzed on HPLC. % intact tracer was calculated as %=(peak area for tracer/total peak area on the HPLC chromatogram)×100.

[3] = H460, 2 Gy-treated tumor, [18F]-C-SNAT4 only

CCSSCC(NC(=O)C(CC(=O)O)NC(=O)C(NC(=O)C(CCC(=O)O)NC(=O)C(CC(=O)O)NC(C)=O)C(C)C)C(=O)NCC(=O)NC(Cc1cn(CCOCCOCCOCC[18F])nn1)C(=O)NCc1ccc(C(=O)NCCCOc2cnc(C#N)nc2)cc1 (stereo not drawn) [[^18F]-C-SNAT4]
clearance route [1]: predominantly renal clearance | AUC of time activity curve (H460 tumor; [3]): 123.6±30.9 % ID min/cc | tumor uptake (H460 tumor; [3]): 1.2±0.3 % ID/cc | AUC of time activity curve (H460 tumor; H460, 5 Gy-treated, hot tracer only, t=0 to 85 min): 279.4±16.6 % ID min/cc | tumor uptake (H460 tumor; H460, high dose cisplatin (9 mg/kg x3) treated, 85 min post-injection): 1.7±0.1 % ID/cc | AUC of time activity curve (H460 tumor; H460, high dose cisplatin treated, t=0 to 85 min): 148.9±10.1 % ID min/cc | tumor uptake (H460 tumor; H460, low dose cisplatin (3 mg/kg x3) treated, 85 min post-injection): 1.2±0.1 % ID/cc | AUC of time activity curve (H460 tumor; H460, low dose cisplatin treated, t=0 to 85 min): 116.7±6.0 % ID min/cc | AUC of time activity curve (H460 tumor; H460, naive tumor, t=0 to 85 min): 67.5±12.0 % ID min/cc | tumor uptake (H460 tumor; H460, naïve animals, 85 min post-injection): 0.7±0.11 % ID/cc | AUC of time activity curve (H460 tumor; H460, naïve tumors (2 Gy experiment)): 92.1±20.9 % ID min/cc | tumor uptake (H460 tumor; H460, two fractions of 5 Gy, hot tracer only, 85 min post injection): 1.0±0.3 % ID/cc | tumor uptake (H460 tumor; H460, untreated tumor (2 Gy experiment)): 0.8±0.1 % ID/cc | tumor uptake (H460 tumor; H460, untreated tumor, hot tracer (mixture comparison), 85 min): 0.4±0.1 % ID/cc | percentage of [18F]-C-SNAT4 remained [2]: 77.5%

From US11679168B2, “Caspase-3-triggered molecular self-assembling PET probes and uses thereof” (The Board of Trustees of the Leland Stanford Junior …, priority 2018, dated 2023)
